# ChEMBL document CHEMBL3987221, “The Australian National University Dept Of Immunology Pathogen Box Compounds Screened” (2018)
# Calls of active or inactive are those of the source. No rule for the calls is given here.
# How the values were obtained:
# [1] = biological target: T1, Ferrochelatase, mitochondrial (Homo sapiens) (UniProt P22830); conditions: at 10 µM
# T1 sequence (whole entry): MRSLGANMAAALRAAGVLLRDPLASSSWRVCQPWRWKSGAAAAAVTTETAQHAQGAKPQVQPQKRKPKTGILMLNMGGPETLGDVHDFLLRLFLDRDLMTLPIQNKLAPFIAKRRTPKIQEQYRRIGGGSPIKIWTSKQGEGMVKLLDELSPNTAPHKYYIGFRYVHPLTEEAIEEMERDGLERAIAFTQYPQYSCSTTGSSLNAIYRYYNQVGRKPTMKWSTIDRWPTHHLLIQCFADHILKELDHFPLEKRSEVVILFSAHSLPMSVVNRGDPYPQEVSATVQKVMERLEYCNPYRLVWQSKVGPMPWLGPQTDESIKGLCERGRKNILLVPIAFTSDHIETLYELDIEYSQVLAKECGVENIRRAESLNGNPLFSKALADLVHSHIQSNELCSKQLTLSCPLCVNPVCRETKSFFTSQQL
# Description: Compound was evaluated for the inhibition of human FECH at 10uM
# [2] = biological target: T2, Porphobilinogen deaminase (Homo sapiens) (UniProt P08397); conditions: at 100 µM
# T2 sequence (whole entry): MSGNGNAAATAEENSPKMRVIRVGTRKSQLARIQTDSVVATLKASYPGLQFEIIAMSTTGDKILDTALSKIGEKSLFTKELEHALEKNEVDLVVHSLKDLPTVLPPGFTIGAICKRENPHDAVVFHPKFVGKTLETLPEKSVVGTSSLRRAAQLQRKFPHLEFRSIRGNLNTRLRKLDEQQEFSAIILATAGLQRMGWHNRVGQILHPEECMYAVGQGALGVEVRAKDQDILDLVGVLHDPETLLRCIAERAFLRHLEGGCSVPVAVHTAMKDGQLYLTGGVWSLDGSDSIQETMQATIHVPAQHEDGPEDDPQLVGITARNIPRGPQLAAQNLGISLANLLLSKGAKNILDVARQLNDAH
# Description: Compound was evaluated for the inhibition of human HMBS at 100uM
SMILES,inhibition [1],inhibition [2]
CCCc1ccc(S(=O)(=O)Nc2ccc(CN3CCN(CC4CC4)CC3)cc2)cc1,inactive,inactive
CC(C)(C)C(O)C(Oc1ccc(-c2ccccc2)cc1)n1cncn1 (stereo not given),inactive,inactive
c1ccc(C[C@@H]2CN(c3nccc(Oc4ccc(-n5ccnc5)cc4)n3)CCN2)cc1,inactive,inactive
Cc1cc(Cl)ccc1NC(=O)CCc1ccc(S(=O)(=O)NCC(C)C)cc1,inactive,inactive
O=C(c1ccco1)N(CCCn1ccnc1)c1nc2c(Cl)cccc2s1,inactive,inactive
COC(=O)c1c(NC(=O)c2c(F)c(F)c(F)c(F)c2F)sc2c1CCCCC2,inactive,inactive
Cc1cc(Nc2ccc(C(F)(F)F)cc2)n2ccnc2n1,inactive,inactive
Nc1cccnc1Nc1ccc(Cl)cc1,inactive,inactive
Cc1ccc(NC(=O)c2nc[nH]c2C(=O)Nc2nc3ccccc3[nH]2)c(C)c1,inactive,inactive
c1coc(CNc2nc(N3CCCCC3)nc3ccccc23)c1,inactive,inactive
CC(C)(C(=O)Nc1ccc(F)cc1)n1cc(-c2ccccc2F)cn1,inactive,inactive
CC(C)(C)c1cc(C(=O)Nc2cccnc2)cc(C(=O)Nc2cccnc2)c1,inactive,inactive
CCC(NC(=O)c1ccccc1NC(=O)c1ccc(C)cc1)C(=O)OC (stereo not given),inactive,inactive
CCc1nc2ccc(C(=O)NCc3ccc4c(c3)OCO4)cn2c1N(C)Cc1cccs1,inactive,inactive
NCCC(O)C(=O)N[C@@H]1C[C@H](N)[C@@H](OC2O[C@H](CN)[C@@H](O)[C@H](O)[C@H]2O)[C@H](O)C1OC1O[C@H](CO)[C@@H](O)[C@H](N)[C@H]1O (stereo not given in full),inactive,inactive
CO[C@@H]1CN(c2ccc(C#CC3(O)CN4CCC3CC4)c(Cc3ccccc3)n2)C[C@H]1O (stereo not given in full),inactive,inactive
CCCS(=O)(=O)N1CCC(CO)(Cc2ccccc2C(F)(F)F)CC1,inactive,inactive
COc1cc(OC)cc(C(=O)NCC2Cc3cc(Cl)cc(-c4ccncc4)c3O2)c1 (stereo not given),inactive,inactive
CC(C)NCC(=O)Nc1cccc(C(=O)Nc2cccc(C(F)(F)F)c2)c1,inactive,inactive
CC1(C)OB(O)c2ccc(C3=NOC(c4cc(Cl)c(F)c(Cl)c4)(C(F)(F)F)C3)cc21 (stereo not given),inactive,inactive
CNC(=O)C1Cc2ccccc2N1C(=O)Cc1ccc(F)cc1 (stereo not given),inactive,inactive
CC(C(=O)Nc1ccc2oc(-c3ccncc3)nc2c1)c1ccccc1 (stereo not given),inactive,inactive
COc1ccc2nc(C)cc(OCC(=O)Nc3ccccc3OC)c2c1,inactive,inactive
COc1ccc(C2(C(=O)Nc3ccc(Br)cc3)CCCC2)cc1,inactive,inactive
COC(=O)c1ccc(F)cc1NS(=O)(=O)c1cccc(-c2cnn(Cc3ccccc3)c2)c1,inactive,inactive
COc1cc(C2=NCCN2)cc2cc(-c3ccc(C4=NCCN4)cc3)oc12,inactive,inactive
COc1ccccc1OCCCCn1c(C2CC2)nc2ccccc21,inactive,inactive

SMILES,inhibition [1],inhibition [2]
COc1nc2ccc(Br)cc2cc1[C@@H](c1ccccc1)[C@@](O)(CCN(C)C)c1cccc2ccccc12,inactive,inactive
CCC(Sc1nc2ccccc2o1)C(=O)Nc1nccs1 (stereo not given),inactive,inactive
NCCN(C(=O)c1ccc(Cl)cc1Cl)c1ccc(OCc2ccc(Cl)cc2)cc1,inactive,inactive
c1ccc(Oc2ccc(-c3cc(N4CCOCC4)[nH]n3)cc2)cc1,inactive,inactive
CC(C(=O)N1CCCC1)N1CCN(S(=O)(=O)c2ccc(C(C)(C)C)cc2)CC1 (stereo not given),inactive,inactive
CCCn1c(NC(=O)c2ccc3ccccc3n2)nc2ccccc21,inactive,inactive
CO/N=C(\C(=O)OC)c1ccccc1CO/N=C(\C)c1cccc(C(F)(F)F)c1,inactive,inactive
CCOC(=O)c1noc(N)c1-c1ccccc1,inactive,inactive
CN1CCCC1CCO[C@](C)(c1ccccc1)c1ccc(Cl)cc1 (stereo not given in full),inactive,inactive
CS(=O)(=O)N1CCC(Cn2nc(Cc3cccc4ccccc34)c3c(N)ncnc32)CC1,inactive,inactive
COc1cccc(-n2nnnc2S(=O)(=O)Cc2ccccc2)c1,inactive,inactive
O=C(NC1CC1)c1ccc(N2CCOc3ccc(Cl)cc32)s1,inactive,inactive
Cc1nn(C)cc1C(C)Nc1nncc(-c2ccc(C(F)(F)F)cc2)n1 (stereo not given),inactive,inactive
CC(C)(C)c1cnc(NC(=O)c2ccccc2O)s1,inactive,inactive
CN1CCN(S(=O)(=O)c2ccc(-c3ccc4c(Nc5ncc(Cl)cn5)ccnc4c3)cc2)CC1,inactive,inactive
N=C(N)c1ccc(OCCCCCOc2ccc(C(=N)N)cc2)cc1,inactive,inactive
CCOc1ccc2cc(-c3nn(CC4CCN(C)CC4)c4ncnc(N)c34)ccc2c1,inactive,inactive
FC(F)(F)c1ccc(N(c2cccnc2)C2CCN(c3ccc(C(F)(F)F)cn3)CC2)cc1,inactive,inactive
Clc1cccc(CO[C@H]2CCc3ccccc3[C@@H]2n2ccnn2)c1,inactive,inactive
Cc1cccc(NC(=O)c2cc(S(=O)(=O)N(C)c3ccc(F)cc3)ccc2Cl)n1,inactive,inactive
CCc1cc(=O)n(C)c(SC(C)C(=O)Nc2ccc(F)cc2)n1 (stereo not given),inactive,inactive
O=C(Nc1ccnc(-c2cccnc2)n1)c1cc(C(F)(F)F)cc(C(F)(F)F)c1,inactive,inactive
COc1ccccc1C(C)NCC(=O)Nc1cc(C(F)(F)F)ccc1Cl (stereo not given),inactive,inactive
O[C@@H](c1cc(C(F)(F)F)nc2c(C(F)(F)F)cccc12)[C@H]1CCCCN1,inactive,inactive
CC1CCCN(C(=O)C(C)Nc2cc(Cl)ccc2N2CCOCC2)C1 (stereo not given),inactive,inactive
FC(F)(F)c1cc(NCCc2ccccc2)nc(-c2ccccn2)n1,–,inactive
